The NIST ThermoML archive (doi:10.1021/je0504156)

Experiment: xn = mol fraction of the nth substance listed
Conditions: 101 kPa, Liquid

Cc1cccc(O)c1 [3-methylphenol] + OCCO
Conditions	mass density [kg/m3]	viscosity [mPa·s]
308.15 K, x1 = 0.0998	1088.36	11.72
308.15 K, x1 = 0.1999	1077.36	12.32
308.15 K, x1 = 0.3	1067.31	12.33
308.15 K, x1 = 0.3996	1058.33	11.88
308.15 K, x1 = 0.5	1050.38	11.2
308.15 K, x1 = 0.5967	1043.44	10.37
308.15 K, x1 = 0.7002	1036.6	9.452
308.15 K, x1 = 0.8	1031.15	8.695
308.15 K, x1 = 0.8989	1026.2	8.03
308.15 K, x1 = 1	1021.64	7.701
313.15 K, x1 = 0.0998	1084.66	9.704
313.15 K, x1 = 0.1999	1073.58	10.13
313.15 K, x1 = 0.3	1063.47	10.02
313.15 K, x1 = 0.3996	1054.44	9.673
313.15 K, x1 = 0.5	1046.47	9.067
313.15 K, x1 = 0.5967	1039.51	8.417
313.15 K, x1 = 0.7002	1032.66	7.67
313.15 K, x1 = 0.8	1027.19	7.03
313.15 K, x1 = 0.8989	1022.22	6.496
313.15 K, x1 = 1	1017.63	6.12
318.15 K, x1 = 0.0998	1080.98	8.113
318.15 K, x1 = 0.1999	1069.79	8.371
318.15 K, x1 = 0.3	1059.61	8.275
318.15 K, x1 = 0.3996	1050.55	7.906
318.15 K, x1 = 0.5	1042.56	7.441
318.15 K, x1 = 0.5967	1035.59	6.893
318.15 K, x1 = 0.7002	1028.7	6.322
318.15 K, x1 = 0.8	1023.23	5.853
318.15 K, x1 = 0.8989	1018.22	5.346
318.15 K, x1 = 1	1013.6	5.022
323.15 K, x1 = 0.0998	1077.28	6.869
323.15 K, x1 = 0.1999	1065.98	7.015
323.15 K, x1 = 0.3	1055.75	6.894
323.15 K, x1 = 0.3996	1046.64	6.572
323.15 K, x1 = 0.5	1038.63	6.182
323.15 K, x1 = 0.5967	1031.63	5.763
323.15 K, x1 = 0.7002	1024.74	5.27
323.15 K, x1 = 0.8	1019.25	4.811
323.15 K, x1 = 0.8989	1014.22	4.433
323.15 K, x1 = 1	1009.56	4.158
333.15 K, x1 = 0.0998	1069.86	5.133
333.15 K, x1 = 0.1999	1058.35	5.087
333.15 K, x1 = 0.3	1047.97	4.972
333.15 K, x1 = 0.3996	1038.8	4.817
333.15 K, x1 = 0.5	1030.72	4.45
333.15 K, x1 = 0.5967	1023.71	4.145
333.15 K, x1 = 0.7002	1016.76	3.794
333.15 K, x1 = 0.8	1011.25	3.488
333.15 K, x1 = 0.8989	1006.16	3.219
333.15 K, x1 = 1	1001.44	2.98
343.15 K, x1 = 0.0998	1060.26	3.81
343.15 K, x1 = 0.1999	1048.59	3.82
343.15 K, x1 = 0.3	1038.14	3.72
343.15 K, x1 = 0.3996	1028.9	3.554
343.15 K, x1 = 0.5	1020.81	3.332
343.15 K, x1 = 0.5967	1013.76	3.096
343.15 K, x1 = 0.7002	1006.79	2.858
343.15 K, x1 = 0.8	1001.25	2.635
343.15 K, x1 = 0.8989	996.13	2.426
343.15 K, x1 = 1	991.33	2.231
353.15 K, x1 = 0.0998	1055.21	2.995
353.15 K, x1 = 0.1999	1043.24	2.967
353.15 K, x1 = 0.3	1032.71	2.882
353.15 K, x1 = 0.3996	1023.39	2.734
353.15 K, x1 = 0.5	1015.21	2.566
353.15 K, x1 = 0.5967	1008.1	2.401
353.15 K, x1 = 0.7002	1001.08	2.237
353.15 K, x1 = 0.8	995.5	2.048
353.15 K, x1 = 0.8989	990.32	1.901
353.15 K, x1 = 1	985.42	1.759
